26 compounds from PubChem BioAssay AID2077 (NMMLSC, 2009) can be followed below.

pEC50: −log10 of the molar value. Activity calls are given as the source filed them. The rule behind the calls is not given here.

One test deals with Bcl-2-like protein 10 (Homo sapiens) (UniProt Q9HD36). Put plainly: inhibitors of Bim-Bcl-B binding, confirmation, biochemical, dose response, multiplexed HTS hits (AID 2077). The conditions noted are these: bead-based flow cytometry, Bim peptide-Bcl-B binding. For orientation: In flow cytometry, cells or beads pass a laser one at a time.
Bcl-2-like protein 10 (Homo sapiens), sequence (Q9HD36 whole entry, looked up): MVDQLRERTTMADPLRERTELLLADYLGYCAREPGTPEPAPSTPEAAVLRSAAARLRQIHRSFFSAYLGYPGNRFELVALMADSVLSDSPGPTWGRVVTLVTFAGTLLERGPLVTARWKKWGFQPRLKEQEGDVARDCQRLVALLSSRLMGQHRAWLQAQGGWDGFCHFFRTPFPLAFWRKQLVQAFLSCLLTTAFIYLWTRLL
By pEC50 is commonly meant −log10 of the EC50, conventionally taken in molar units. Consider `COc1ccc(N2C(=O)C(Cl)=C(NC3C(=O)N(c4ccccc4)N(C)C3C)C2=O)cc1` (stereo unspecified), for which the negative-log EC50 (pEC50) was 6.21.

Staying with this test, now noted: bead-based flow cytometry, Bim peptide-Bcl-B binding; at 100 µM (top of the series).
Turning to `O=C1c2ccccc2C(=O)N1CN(C(=O)COc1ccc(Cl)cc1Cl)c1cccc(F)c1`, the “response change, negative = inhibition” value is “inactive”.

Regarding `C=CS(=O)(=O)c1sc(Cl)c(N2CCOCC2)c1[N+](=O)[O-]`, the “response change, negative = inhibition” value is “inactive”. As for `CCOc1ccccc1CNc1ccc(O)cc1`, the “response change, negative = inhibition” value was “inactive”. With `Cc1ccc(-c2cc(C(=O)Nc3nccs3)c3ccccc3n2)o1`, the “response change, negative = inhibition” value was “inactive”.

Turning to `COc1ccc(CCNC(=O)c2ccc3nc(-c4ccco4)c(-c4ccco4)nc3c2)cc1OC`, the “response change, negative = inhibition” value is “inactive”. In the case of `Cc1ccc(-c2nc3c(c(=O)[nH]c(=O)n3Cc3ccccc3)n2C)o1`, the “response change, negative = inhibition” value is “inactive”.

Regarding `Cc1nnc(Sc2cc(NCCO)c([N+](=O)[O-])c3nonc23)s1`, the “response change, negative = inhibition” value is “inactive”. On the same count and under the same terms, next, `Cc1cc2nn(-c3cccc4ccccc34)nc2cc1N`: “inactive”; `O=C1C(Cl)=C(N2CCN(c3ccccc3[N+](=O)[O-])CC2)C(=O)c2ccccc21`: “inactive”; `COc1cc(N=C2SSNC2Cl)c(OC)cc1Cl` (stereo unspecified): “inactive”. On to `Oc1ccc(NCc2ccccc2OCc2ccccc2)cc1`, for which the “response change, negative = inhibition” value was “inactive”. Regarding `CNC1CCC(Br)CC(C(=O)/C=C/c2cccc(OC)c2OC)C1=O` (stereo unspecified), the “response change, negative = inhibition” value was “inactive”. On to `CCN(CC)c1ccc(NC(=O)c2ccccc2F)cc1S(=O)(=O)Nc1ccccc1OC`, for which the “response change, negative = inhibition” value is “inactive”. Take `O=[N+]([O-])c1c(NCCCO)cc(Sc2nc3ccccc3s2)c2nonc12`: the “response change, negative = inhibition” value is “inactive”. In the case of `CCN1C(=O)/C(=C\C=C2/C=CC=CN2CC)SC1=S`, the “response change, negative = inhibition” value is “inactive”. As for `CCN(CC)C(=O)COC(=O)c1cc(-c2ccco2)nc2ccccc12`, the “response change, negative = inhibition” value was “inactive”.

As for `COc1ccccc1NC1=C(NC(C)=O)C(=O)c2ccccc2C1=O`, the “response change, negative = inhibition” value was “inactive”. Same read-out and setting: next, `Cc1ccc(-c2cc(-c3ccc(F)cc3)c(C#N)c(N)n2)o1`: “inactive”. Regarding `CCN(CC)c1ccc(NC(=O)COc2ccccc2C)cc1S(=O)(=O)Nc1ccccc1OC`, the “response change, negative = inhibition” value is “inactive”.

`O=C(/C=C/c1ccc(-c2ccccc2[N+](=O)[O-])o1)c1ccccc1`: the “response change, negative = inhibition” value is “inactive”. As for `CN(CCO)c1cc(Sc2nc3ccccc3s2)c2nonc2c1[N+](=O)[O-]`, the “response change, negative = inhibition” value was “inactive”.

Take `COc1cc(CNc2ccc3[nH]c(=O)[nH]c3c2)cc(Br)c1OCC(=O)NC(C)(C)C`: the “response change, negative = inhibition” value was “inactive”.

In the case of `Cc1ccc(-c2cc(-c3ccc(C)o3)nc(N)c2C#N)cc1`, the “response change, negative = inhibition” value was “inactive”. Regarding `CC(=O)OCCCNc1cc(Sc2nc3ccccc3s2)c2nonc2c1[N+](=O)[O-]`, the “response change, negative = inhibition” value is “inactive”.

As to `CNC(CC(=O)c1ccc([N+](=O)[O-])cc1)C(Cl)(Cl)Cl` (stereo unspecified), the “response change, negative = inhibition” value is “inactive”.
